Several values for one entry are separate records, joined by “and”; a condition that tells them apart may be missing. Identical values can stand only once. Inconclusive results and toxic doses are left out. Cut-off read from the data, not from the text of the source: active = T/C of 150% or more; inactive = T/C below 125%.
System: L1210 leukemia ip in BDF1 mice, survival T/C
Assay: NCI In Vivo Anticancer Drug Screen. Data for tumor model L1210 Leukemia (intraperitoneal) in B6D2F1 (BDF1) mice
Conditions: endpoint: mean survival time, higher = longer survival
Outline: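 Transplanted-tumor mice were given test agent; controls received vehicle only. Survival readings from the two groups were divided (treated over control).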

[1] = dose: 100.0 mg/kg/injection, schedule: Q01DX009 (ip), vehicle: Klucel (hydroxypropylcellulose) (HPC)
[2] = dose: 200.0 mg/kg/injection, schedule: Q01DX009 (ip), vehicle: Klucel (hydroxypropylcellulose) (HPC)
[3] = dose: 400.0 mg/kg/injection, schedule: Q01DX009 (ip), vehicle: Klucel (hydroxypropylcellulose) (HPC)
[4] = dose: 50.0 mg/kg/injection, schedule: Q01DX009 (ip), vehicle: saline with Tween-80
[5] = dose: 100.0 mg/kg/injection, schedule: Q04DX003 (ip), vehicle: saline with Tween-80
[6] = dose: 200.0 mg/kg/injection, schedule: Q04DX003 (ip), vehicle: saline with Tween-80
[7] = dose: 400.0 mg/kg/injection, schedule: Q01DX001 (ip), vehicle: saline with Tween-80
[8] = dose: 100.0 mg/kg/injection, schedule: Q01DX001 (ip), vehicle: saline
[9] = dose: 200.0 mg/kg/injection, schedule: Q01DX001 (ip), vehicle: saline
[10] = dose: 400.0 mg/kg/injection, schedule: Q01DX001 (ip), vehicle: saline
[11] = dose: 100.0 mg/kg/injection, schedule: Q04DX003 (ip), vehicle: Klucel (hydroxypropylcellulose) (HPC)
[12] = dose: 200.0 mg/kg/injection, schedule: Q04DX003 (ip), vehicle: Klucel (hydroxypropylcellulose) (HPC)
[13] = dose: 75.0 mg/kg/injection, schedule: Q01DX001 (ip), vehicle: saline
[14] = dose: 150.0 mg/kg/injection, schedule: Q01DX001 (ip), vehicle: saline

Measured: T/C

COc1cccc2c1C(=O)c1c(O)c3c(c(O)c1C2=O)C[C@@](O)(C(C)=O)C[C@@H]3OC1CC(NC(=S)Nc2ccc(F)cc2)C(O)C(C)O1 (stereo partly specified)
inactive: dose: 0.25 mg/kg/injection, schedule: Q04DX003 (ip), vehicle: other 100 % of control | dose: 0.5 mg/kg/injection, schedule: Q04DX003 (ip), vehicle: other 98 % of control | dose: 1.0 mg/kg/injection, schedule: Q04DX003 (ip), vehicle: other 104 % of control | dose: 2.0 mg/kg/injection, schedule: Q04DX003 (ip), vehicle: other 100 % of control | dose: 4.0 mg/kg/injection, schedule: Q04DX003 (ip), vehicle: other 112 % of control | dose: 6.0 mg/kg/injection, schedule: Q01DX009 (ip), vehicle: water 111 % of control | dose: 8.0 mg/kg/injection, schedule: Q04DX003 (ip), vehicle: other 112 % of control | dose: 12.0 mg/kg/injection, schedule: Q01DX009 (ip), vehicle: water 114 % of control | dose: 14.0 mg/kg/injection, schedule: Q04DX003 (ip), vehicle: water 108 % of control | dose: 16.0 mg/kg/injection, schedule: Q04DX003 (ip), vehicle: other 109 % of control | dose: 21.0 mg/kg/injection, schedule: Q04DX003 (ip), vehicle: water 108 % of control | dose: 23.0 mg/kg/injection, schedule: Q01DX009 (ip), vehicle: water 108 % of control | dose: 24.0 mg/kg/injection, schedule: Q01DX009 (ip), vehicle: water 116 % of control | dose: 39.0 mg/kg/injection, schedule: Q01DX009 (ip), vehicle: water 109 % of control | dose: 48.0 mg/kg/injection, schedule: Q01DX009 (ip), vehicle: water 122 % of control | dose: 50.0 mg/kg/injection, schedule: Q04DX003 (ip), vehicle: water 120 % of control | dose: 65.0 mg/kg/injection, schedule: Q01DX009 (ip), vehicle: water 109 % of control | dose: 108.0 mg/kg/injection, schedule: Q01DX009 (ip), vehicle: water 119 % of control | dose: 180.0 mg/kg/injection, schedule: Q01DX009 (ip), vehicle: water 104 % of control

O=C(N/N=C/c1ccc(Cl)cc1)c1cccc([N+](=O)[O-])c1
inactive: [1] 94 % of control | [2] 94 % of control | [3] 95 % of control

CCCCCCCCCCCC(=O)[O][Sn]([CH2]C)([CH2]C)[O]C(=O)CCCCCCCCCCC
inactive: dose: 6.25 mg/kg/injection, schedule: Q04DX003 (ip), vehicle: saline 112 % of control | dose: 8.75 mg/kg/injection, schedule: Q01DX009 (ip), vehicle: saline with Tween-80 98 % of control | dose: 12.5 mg/kg/injection, schedule: Q01DX001 (ip), vehicle: saline 103 % of control | dose: 12.5 mg/kg/injection, schedule: Q04DX003 (ip), vehicle: saline 105 % of control | dose: 17.5 mg/kg/injection, schedule: Q01DX009 (ip), vehicle: saline with Tween-80 121 % of control | dose: 25.0 mg/kg/injection, schedule: Q01DX001 (ip), vehicle: saline 109 % of control | dose: 25.0 mg/kg/injection, schedule: Q04DX003 (ip), vehicle: saline 112 % of control | dose: 35.0 mg/kg/injection, schedule: Q04DX003 (ip), vehicle: acetone 106 % of control

CN(C)N=C(Cc1ccccc1)Cc1ccccc1
inactive: [4] 97 % of control | dose: 100.0 mg/kg/injection, schedule: Q01DX009 (ip), vehicle: saline with Tween-80 103 % of control | [5] 103 % of control | [6] 106 % of control

NCCNc1ncnc2c1ncn2C1OC(CO)C(O)C1O (stereo unspecified)
inactive: dose: 6.25 mg/kg/injection, schedule: Q01DX009 (ip), vehicle: saline 115 % of control | dose: 12.5 mg/kg/injection, schedule: Q01DX005 (ip), vehicle: saline 101 % of control | dose: 12.5 mg/kg/injection, schedule: Q01DX009 (ip), vehicle: saline 111 % of control | dose: 25.0 mg/kg/injection, schedule: Q01DX005 (ip), vehicle: saline 100 % of control | dose: 25.0 mg/kg/injection, schedule: Q01DX009 (ip), vehicle: saline 117 % of control | dose: 50.0 mg/kg/injection, schedule: Q01DX005 (ip), vehicle: saline 97 % of control | dose: 100.0 mg/kg/injection, schedule: Q01DX005 (ip), vehicle: saline 86 % of control

O=C(/C=C/c1ccccc1)NC(=S)Nc1ccc(CCO)cc1
inactive: [4] 97 % of control and 111 % of control | dose: 100.0 mg/kg/injection, schedule: Q01DX001 (ip), vehicle: saline with Tween-80 100 % of control | dose: 100.0 mg/kg/injection, schedule: Q04DX002 (ip), vehicle: saline with Tween-80 96 % of control and 97 % of control | [5] 102 % of control | dose: 200.0 mg/kg/injection, schedule: Q01DX001 (ip), vehicle: saline with Tween-80 88 % of control | dose: 200.0 mg/kg/injection, schedule: Q04DX002 (ip), vehicle: saline with Tween-80 96 % of control and 101 % of control | [6] 100 % of control | [7] 90 % of control | dose: 400.0 mg/kg/injection, schedule: Q01DX009 (ip), vehicle: saline with Tween-80 93 % of control and 95 % of control | dose: 400.0 mg/kg/injection, schedule: Q04DX002 (ip), vehicle: saline with Tween-80 104 % of control | dose: 400.0 mg/kg/injection, schedule: Q04DX003 (ip), vehicle: saline with Tween-80 87 % of control

COC1C(O)C(CO)OC1n1ccc(N)nc1=O (stereo unspecified)
inactive: [8] 95 % of control | [9] 95 % of control | [10] 98 % of control

OCC1OC(Oc2cc(O)cc3[o+]c(-c4cc(O)c(O)c(O)c4)c(OC4(CO)OC(CO)C(O)C4O)cc23)C(O)C(O)C1O (stereo unspecified)
inactive: dose: 100.0 mg/kg/injection, schedule: Q01DX001 (ip), vehicle: carboxymethylcellulose (CMC) 95 % of control | dose: 200.0 mg/kg/injection, schedule: Q01DX001 (ip), vehicle: carboxymethylcellulose (CMC) 98 % of control | dose: 400.0 mg/kg/injection, schedule: Q01DX001 (ip), vehicle: carboxymethylcellulose (CMC) 98 % of control

COc1ccccc1N1C(=O)C2C(C1=O)C1(Cl)C(Cl)=C(Cl)C2(Cl)C1(Cl)Cl (stereo unspecified)
inactive: dose: 50.0 mg/kg/injection, schedule: Q01DX009 (ip), vehicle: Klucel (hydroxypropylcellulose) (HPC) 101 % of control | [1] 95 % of control | [11] 103 % of control | [2] 101 % of control and 92 % of control | [12] 109 % of control

OC1CCc2c(Cl)sc(Cl)c21 (stereo unspecified)
inactive: [7] 98 % of control

CCCC1(c2ccccc2)NC(=O)NC1=O (stereo unspecified)
inactive: [8] 96 % of control | [9] 102 % of control

O=C(O)C(O)Cc1ccccc1 (stereo unspecified)
inactive: dose: 90.0 mg/kg/injection, schedule: Q04DX003 (ip), vehicle: saline 105 % of control | dose: 100.0 mg/kg/injection, schedule: Q04DX003 (ip), vehicle: saline 100 % of control and 107 % of control | dose: 135.0 mg/kg/injection, schedule: Q04DX003 (ip), vehicle: saline 100 % of control | dose: 200.0 mg/kg/injection, schedule: Q04DX003 (ip), vehicle: saline 102 % of control and 107 % of control | dose: 300.0 mg/kg/injection, schedule: Q04DX003 (ip), vehicle: saline 92 % of control | dose: 400.0 mg/kg/injection, schedule: Q04DX003 (ip), vehicle: saline 106 % of control

CC(=O)Nc1ccc(OCc2ccccc2)cc1[N+](=O)[O-]
inactive: dose: 50.0 mg/kg/injection, schedule: Q01DX001 (ip), vehicle: saline 95 % of control | [8] 101 % of control | [9] 98 % of control | [10] 93 % of control

CCCCCCCC(=O)N(C)OC
inactive: [1] 97 % of control | [11] 89 % of control | [12] 94 % of control | [3] 100 % of control | dose: 400.0 mg/kg/injection, schedule: Q04DX003 (ip), vehicle: Klucel (hydroxypropylcellulose) (HPC) 92 % of control

Nc1ccc(CCCCc2ccccc2)c(Cl)c1
inactive: [13] 90 % of control | [14] 96 % of control

CC(C)(C)[Si](O)C(C)(C)C
inactive: [13] 91 % of control | [14] 98 % of control | dose: 300.0 mg/kg/injection, schedule: Q01DX001 (ip), vehicle: saline 96 % of control

Source: PubChem BioAssay AID248 (DTP/NCI, 2004)
